Holding throughout (assay type): cell-based, human
The test system of one assay is A549 cells. Put plainly: Daughter-cell subgroups P1 through P8 in mitoses with DNV, A549. The settings on record: A549, 24 hours, wogonin 50 μM, 5-FU 20 μM. The source says:
“Daughter Number Variation” is a process that occurs during mitosis, where more than two daughter cells are produced per mitotic division. It is a two-stage process, wherein cell divisions of mono-nucleate, bi-nucleate, tri-nucleate and tetra-nucleate mother cells at Stage 1 produce subgroups of single mono-nucleate cells (herein referred to as P1), and subgroups containing one bi-nucleate cell and two mono-nucleate cells (herein referred to as P2). Stage 1 is followed by Stage 2, during which time some of the daughter cells from Stage 1 fuse to produce multi-nucleate cell subgroups, where the different subgroups differ with respect to the number of constituent cells and their nucleate status (herein referred to as P3 through P8). All the subgroups from a single DNV mitosis stay close to one another to form a distinct cluster when the cell culture is not overly dense with cells.
P1 subgroup cells are daughter mono-nucleate cells resulting from mitoses with DNV that have not undergone any post-mitotic cell fusion. P2 subgroup daughter cells are clusters of one bi-nucleate cell and two mono-nucleate cells, which also have not undergone any post-mitotic cell fusion during DNV, whereas each of the multi-nucleated subgroups contains at least one cell that is generated from post-mitotic fusions between the Stage 1 cells. P3 through P8 are daughter cell subgroups, which result from cell fusions during DNV, and wherein each subgroup includes at least one multinucleate cell.
By way of example and not of limitation, there is at least one multinucleate cell with two nuclei in P3 and P5, one multinucleate cell with three nuclei in P4 and P6, one multinucleate cell with four nuclei in P7, and one multinucleate cell with five nuclei in P8, sharing the same cytoplasm. More specifically, P3 cell subgroups are clusters of one multinucleate cell with two nuclei and one mononucleate cell, P4 cell subgroups are one multinucleate cell with three nuclei, P5 cell subgroups are clusters of either two multinucleate cells with two nuclei or one multinucleate cell with two nuclei and one binucleate cell, P6 cell subgroups are clusters of one multinucleate cell with three nuclei and one mononucleate cell, P7 cell subgroups are one multinucleate cell with four nuclei, and P8 cell subgroups are one multinucleate cell with five nuclei. P1 through P8 cell subgroups are depicted in detail in FIG. 2.
The counts of P1 and P2 subgroups of cancer cells are then used to obtain their proportions based on the total number of cell subgroups P1 through P8 that resulted from mitotic DNVs during the predetermined period of time. The proportions are typically expressed as percentages. The proportion of P1 subgroup of cells is calculated as (number of P1 subgroups)+(total number of daughter cell subgroups)×100%, and the proportion of (P1 and P2) subgroup is calculated as (number of P1 subgroups+number of P2 subgroups)+(total number of daughter cell subgroups)×100%. This can also be expressed as (number of P1 subgroups)+(total number of P1 through P8 subgroups)×100%, or (number of P1 subgroups+number of P2 subgroups)+(total number of P1 through P8 subgroups)×100%, respectively.
To investigate DNVs, the human HepG2 hepatocellular carcinoma, HeLa cervical adenocarcinoma, and A549 lung adenocarcinoma cell lines, as well as the non-cancerous RPE1 line of hTRET-immortalized retina epithelial cells, were obtained from the American Type Culture Collection (ATCC, Manassas, Va., USA) and cultivated in Dulbecco's Modified Eagle Medium (DMEM) supplemented with 10% fetal bovine serum (Gemini Bio-Products, Sacramento. Calif.) under a humidified atmosphere of 5% C02 at 37° C. […]

The test system of another assay is HepG2 cells. As to the kind of experiment: Cell cytotoxicity assay (crystal violet), HepG2. The following applies: HepG2, 24 hours, 50 μM wogonin, 20 μM 5-FU, absorbance 600 nm. Here is the method:
(§1) Cell cytotoxicity assay was carried out on 96 well plate, where cells were treated with neutral, acidic, alkaline pH and anti-cancer drug wogonin or 5-FU. After 24 hours, crystal violet (8% in methanol), and dye absorbed by live cells was extracted with sodium citrate (0.1 M) in 50% ethanol. Absorbance was read at 600 nm.
(§2) HepG2, HeLa and A549 cells were grown to a monolayer density of 1×10^3 per well in neutral growth medium overnight. There upon the cells were changed to various treatment media at neutral, acidic and alkaline pHs, neutral medium containing 50 μM wogonin and neutral medium containing 20 μM 5-FU, for 24 hours at 37° C. in humidified 5% CO2 atmosphere. Following the treatment, floating cells were removed, and the attached cells were stained with crystal violet (8% in methanol); the dye absorbed by the live cells was extracted with sodium citrate (0.1 M) in 50% ethanol [1 25], and quantitated by absorbance at 600 nm.

In the next assay the test system is HeLa cells. Put plainly: Cell cytotoxicity assay (crystal violet), HeLa. The settings on record: 24 hours, 50 μM wogonin, 20 μM 5-FU, absorbance 600 nm. The procedure:
as §1, §2

Take `O=c1[nH]cc(F)c(=O)[nH]1` [5-FU, 5-flurouracil]: in the assay on A549 cells, the “Mitoses with DNV, number” value was found to be 3; the “P1 + P2 subgroups, number” value is 3; the “P1 subgroups, number” value was 3; the “P2 subgroups, number” value was determined as 0. Besides, in the assay with A549 cells, the “P3 subgroups, number” value is reported as 0; the “P4 subgroups, number” value is 0; the “P5 subgroups, number” value amounted to 0; the “P6 subgroups, number” value turned out to be 0. In addition, in the assay with A549 cells, the “P7 subgroups, number” value worked out at 0 and the “P8 subgroups, number” value is given as 0. Further, the “Cell death as compared to neutral pH” value in the assay on HepG2 cells is on record as “increased cell death”. In addition, in the assay with HeLa cells, the “Cell death as compared to neutral pH” value is reported as “increased cell death”.
With `COc1c(O)cc(O)c2c(=O)cc(-c3ccccc3)oc12` [Wogonin, wogonin], in the assay on A549 cells, the “Mitoses with DNV, number” value is listed as 7; the “P1 + P2 subgroups, % of all P1 through P8 subgroups” value was “(57.1) %”; the “P1 + P2 subgroups, number” value is listed as 4; the “P1 subgroups, % of all P1 through P8 subgroups” value was “(57.1) %”. For the same molecule, in the assay on A549 cells, the “P1 subgroups, number” value is 4; the “P2 subgroups, number” value amounted to 0; the “P3 subgroups, % of all P1 through P8 subgroups” value is “(42.8) %”; the “P3 subgroups, number” value worked out at 3. Also, in the assay on A549 cells, the “P4 subgroups, number” value came out at 0; the “P5 subgroups, number” value worked out at 0; the “P6 subgroups, number” value came out at 0; the “P7 subgroups, number” value stood at 0. Further, the “P8 subgroups, number” value in the assay on A549 cells is 0. Also, in the assay with A549 cells (listed as wogonin), the “P1 + P2 subgroups, % of all P1 through P8 subgroups” value is listed as 57.1% and the “P1 subgroups, % of all P1 through P8 subgroups” value is 57.1%. Moreover, in the assay with HepG2 cells, the “Cell death as compared to neutral pH” value was “increased cell death”. In addition, the “Cell death as compared to neutral pH” value with HeLa cells is “increased cell death”.

Source of the values: patent US11952593B2, “Detection and treatment of daughter number variations in cancer cells” (PharmacoGenetics Limited, priority 2020, dated 2024).
